Active and inactive are the calls of the source.
What was measured:
HEK293 = assay: EBV LMP1 TES2 canonical NF-kB signalling blockers – cell-based, HEK293, luciferase, cherry-pick, dose response (AID 588343); format: functional; conditions: Homo sapiens
P388/ADR = assay: cells; format: functional; conditions: Mus musculus
SN12K1 = assay: cells; format: functional; conditions: Homo sapiens
P388 = assay: cells; format: functional; conditions: Mus musculus
[1] = blockade of melanocortin 4 receptor signaling – cell-based, plate reader, cherry pick, counter-screen for LGR2 antagonist project, dose response (AID 743444); format: functional;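 note: transfected HEK 293 cells stimulated with alpha-MSH peptide; potency of inhibitors of the alpha-MSH evoked signal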
[2] = blockers of bursicon-stimulated LGR2 cAMP reporter – cell-based, HEK293, CRE-luciferase reporter, cherry pick, set 2, dose response (AID 743343); format: functional;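 note: transfected cells were stimulated with diluted bursicon conditioned medium after compound addition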
[3] = HIV-1 AD8 envelope cell-cell fusion blockers – cherry-pick, dose response (AID 652062); format: functional, cell-based;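 note: luciferase signal from cell-cell fusion driven by HIV-1 clade B AD8 Env; potency is for inhibitors of fusion seen as a drop in luminescence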
[4] = blockers of HIV-1 envelope-mediated cell-cell fusion – cherry-pick, dose response (AID 652057); format: functional, cell-based
[5] = off-target signal loss in HeLa-CEM21 co-culture – HeLa F-luc CTL cells, cherry-picked, counter-screen for HIV-1 Env fusion inhibitor project, dose response (AID 652040); format: functional, cell-based;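 note: potency for signal decrease marking cytotoxic or nonspecific inhibition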
[6] = blockers of HIV-1 ZM109 envelope-driven cell-cell fusion – HeLa effector, CEM target cells, luciferase, cherry-pick, dose response (AID 652058); format: functional, cell-based;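 note: luciferase signal from HIV-1 Env mediated cell-cell fusion of effector and target cells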
[7] = Luminescence Cell-Based Dose Confirmation HTS to Identify Inhibitors of Platelet Dense Granule Release. [Related pubchem assays: 1663 (Primary HTS), 1678 (Summary of Project)]; format: functional
Cytochrome P450 2C9 = Cytochrome P450 2C9 (Homo sapiens, UniProt P11712)
[8] = alpha-synuclein stem-loop luciferase translation blockers – H4 neuroglioma cells, luminescence, confirmation (AID 1988); format: functional, cell-based
[9] = luciferase reporter signal suppression in cells – H4 neuroglioma cells, luminescence, dose response (AID 1990); format: functional, cell-based
[10] = Luminescence Cell-Based Dose Response HTS to Identify Inhibitors of 5'UTR Stem-Loop Driven Prion Protein mRNA Translation in H4 Neuroglioblastoma Cells. [Related pubchem assays: 1827 (Project Summary), 1813 (Primary HTS)]; format: functional
[11] = target: Luciferin 4-monooxygenase (Photinus pyralis, UniProt P08659); assay: inhibition of purified Photinus pyralis luciferase – biochemical, luminescence, dose response (AID 1891)
[12] = loss of viability in HepG2 cells – cell-based, CellTiter-Glo, cherry-picked, cytotoxicity control for Shn3 inhibitor project, dose response (AID 624134); format: functional
[13] = reduction of Shn3 3'UTR-driven luciferase in osteoblasts – cell-based, Clone20 osteoblasts, firefly luciferase, cherry-picked, dose response (AID 624132); format: functional;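 note: firefly luciferase luminescence from reporter carrying the Shn3 3'UTR in osteoblasts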
[14] = target: T1, Polyadenylate-binding protein 1 (Homo sapiens, UniProt P11940); assay: MLLE domain peptide-binding blockers, IC50 – biochemical, fluorescence polarization, FITC-PAM2 peptide, dose response (AID 602259); format: functional; conditions: read-out: IC50_Mean
[15] = target: T2, DNA repair protein RAD52 homolog (Homo sapiens, UniProt P43351); format: functional, biochemical
T2 sequence (P43351 whole entry): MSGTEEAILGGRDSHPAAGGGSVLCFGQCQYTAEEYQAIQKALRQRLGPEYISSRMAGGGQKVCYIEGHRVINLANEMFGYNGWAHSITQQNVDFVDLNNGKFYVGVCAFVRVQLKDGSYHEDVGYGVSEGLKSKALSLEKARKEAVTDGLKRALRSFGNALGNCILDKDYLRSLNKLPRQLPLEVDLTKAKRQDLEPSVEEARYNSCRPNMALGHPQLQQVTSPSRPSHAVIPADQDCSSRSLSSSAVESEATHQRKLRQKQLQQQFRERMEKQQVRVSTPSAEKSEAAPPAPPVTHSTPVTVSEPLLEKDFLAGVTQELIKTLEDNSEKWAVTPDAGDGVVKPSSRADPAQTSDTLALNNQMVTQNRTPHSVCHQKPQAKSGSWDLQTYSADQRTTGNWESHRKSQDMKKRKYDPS

[16] = target: T1, Polyadenylate-binding protein 1; assay: MLLE binding blockers, Cy5 peptide tracer – biochemical, fluorescence polarization, Cy5-PAM2 peptide, secondary, miRNA deadenylation inhibitor project, dose response (AID 602260); format: functional; conditions: read-out: IC50_Mean
Cytochrome P450 2C19 = Cytochrome P450 2C19 (Homo sapiens, UniProt P33261); assay: Cytochrome panel assay with activity outcomes. Panel member name: p450-cyp2c19 Compounds with AC50 equal or less than 10 uM are considered active; format: functional; conditions: read-out: AC50
Cytochrome P450 2D6 = Cytochrome P450 2D6 (Homo sapiens, UniProt P10635);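 note: CYP2D6 member of a cytochrome P450 panel assay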
Cytochrome P450 3A4 = Cytochrome P450 3A4 (Homo sapiens, UniProt P08684);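 note: CYP3A4 tested as one member of a cytochrome P450 panel screen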
Streptokinase A = target: T3, Streptokinase A (Streptococcus pyogenes serotype M1, UniProt P10520); assay: viability-normalized secreted streptokinase activity reduction – plasminogen activation absorbance, OD405, dose response (AID 1914); format: functional, Streptococcus pyogenes M1 GAS;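 note: secreted streptokinase activity via plasminogen activation per viability signal from cell pellet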
T3 sequence (P10520 whole entry): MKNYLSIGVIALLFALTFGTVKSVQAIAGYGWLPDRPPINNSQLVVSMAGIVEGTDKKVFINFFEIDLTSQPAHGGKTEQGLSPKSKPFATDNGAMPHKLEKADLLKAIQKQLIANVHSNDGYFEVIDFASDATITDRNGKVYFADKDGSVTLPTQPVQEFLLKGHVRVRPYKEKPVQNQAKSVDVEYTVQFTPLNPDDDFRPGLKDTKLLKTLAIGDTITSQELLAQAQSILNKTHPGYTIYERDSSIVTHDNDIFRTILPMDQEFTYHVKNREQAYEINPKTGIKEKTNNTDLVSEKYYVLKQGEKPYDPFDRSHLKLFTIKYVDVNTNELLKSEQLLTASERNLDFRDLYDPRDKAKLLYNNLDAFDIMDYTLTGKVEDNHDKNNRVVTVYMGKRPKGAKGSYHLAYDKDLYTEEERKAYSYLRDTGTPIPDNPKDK

Streptococcus = assay: GAS UMAA2166 growth inhibition – luminescence, BacTiterGlo, counter-screen for streptokinase expression inhibitor project, dose response (AID 1915); format: functional, organism-based;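 note: potency for reduction of bacterial viability or growth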
[17] = Luminescence Cell-Based Dose Retest to Confirm Inhibitors of Cancer Stem Cells. [Related pubchem assays (depositor defined):AID2717, AID2721]; format: functional; conditions: Homo sapiens
[18] = system: Streptococcus sp. 'group A'; assay: Streptococcus pyogenes SK(-)GAS viability under kanamycin – luminescence, BacTiterGlo, confirmation, counter-screen for streptokinase expression inhibitor project, dose response (AID 1900); format: functional, organism-based

Cytochrome P450 2D6, sequence (P10635 whole entry): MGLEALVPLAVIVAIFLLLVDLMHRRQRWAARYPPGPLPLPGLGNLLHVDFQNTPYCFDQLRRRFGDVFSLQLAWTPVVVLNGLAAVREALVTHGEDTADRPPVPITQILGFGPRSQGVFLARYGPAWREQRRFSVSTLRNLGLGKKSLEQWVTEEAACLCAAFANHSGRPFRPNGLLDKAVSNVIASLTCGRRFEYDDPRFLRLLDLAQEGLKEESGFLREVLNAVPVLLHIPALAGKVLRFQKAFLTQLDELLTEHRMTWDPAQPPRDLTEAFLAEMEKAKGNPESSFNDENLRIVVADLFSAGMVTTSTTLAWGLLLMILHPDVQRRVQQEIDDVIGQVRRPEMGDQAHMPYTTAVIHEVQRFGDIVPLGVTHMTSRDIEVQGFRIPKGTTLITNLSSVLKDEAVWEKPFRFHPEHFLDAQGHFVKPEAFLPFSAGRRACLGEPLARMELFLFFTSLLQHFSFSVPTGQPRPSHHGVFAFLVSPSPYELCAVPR
T1 sequence (P11940 whole entry, the tested form may be a part): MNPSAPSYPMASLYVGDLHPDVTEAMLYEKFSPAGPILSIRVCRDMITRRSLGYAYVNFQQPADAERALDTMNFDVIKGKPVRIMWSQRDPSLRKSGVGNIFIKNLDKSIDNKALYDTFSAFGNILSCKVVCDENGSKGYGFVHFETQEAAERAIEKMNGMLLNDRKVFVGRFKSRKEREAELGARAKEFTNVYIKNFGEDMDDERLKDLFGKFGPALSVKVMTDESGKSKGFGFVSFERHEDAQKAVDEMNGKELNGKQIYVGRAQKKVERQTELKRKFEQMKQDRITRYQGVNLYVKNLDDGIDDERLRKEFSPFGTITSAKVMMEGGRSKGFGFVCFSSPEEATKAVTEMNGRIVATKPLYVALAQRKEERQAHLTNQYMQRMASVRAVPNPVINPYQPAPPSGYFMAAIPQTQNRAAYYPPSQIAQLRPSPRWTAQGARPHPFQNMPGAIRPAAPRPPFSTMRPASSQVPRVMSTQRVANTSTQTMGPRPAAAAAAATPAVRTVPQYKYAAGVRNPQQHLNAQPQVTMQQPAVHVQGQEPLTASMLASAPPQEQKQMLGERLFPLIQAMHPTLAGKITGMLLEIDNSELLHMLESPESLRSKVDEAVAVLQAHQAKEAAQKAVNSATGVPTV
Cytochrome P450 3A4, sequence (P08684 whole entry): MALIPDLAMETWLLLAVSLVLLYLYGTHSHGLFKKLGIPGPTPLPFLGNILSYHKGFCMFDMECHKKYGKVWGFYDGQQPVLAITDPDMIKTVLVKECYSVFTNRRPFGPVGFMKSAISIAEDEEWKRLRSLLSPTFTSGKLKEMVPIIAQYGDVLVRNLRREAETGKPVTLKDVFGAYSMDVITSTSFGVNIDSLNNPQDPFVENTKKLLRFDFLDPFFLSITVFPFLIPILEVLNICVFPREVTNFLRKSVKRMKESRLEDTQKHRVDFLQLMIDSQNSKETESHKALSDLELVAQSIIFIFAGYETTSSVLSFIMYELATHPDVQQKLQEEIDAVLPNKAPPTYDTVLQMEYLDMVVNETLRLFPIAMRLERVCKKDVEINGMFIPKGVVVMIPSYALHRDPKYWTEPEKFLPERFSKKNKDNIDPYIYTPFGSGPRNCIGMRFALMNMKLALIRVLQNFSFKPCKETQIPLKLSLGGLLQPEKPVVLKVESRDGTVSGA
Cytochrome P450 2C19, sequence (P33261 whole entry): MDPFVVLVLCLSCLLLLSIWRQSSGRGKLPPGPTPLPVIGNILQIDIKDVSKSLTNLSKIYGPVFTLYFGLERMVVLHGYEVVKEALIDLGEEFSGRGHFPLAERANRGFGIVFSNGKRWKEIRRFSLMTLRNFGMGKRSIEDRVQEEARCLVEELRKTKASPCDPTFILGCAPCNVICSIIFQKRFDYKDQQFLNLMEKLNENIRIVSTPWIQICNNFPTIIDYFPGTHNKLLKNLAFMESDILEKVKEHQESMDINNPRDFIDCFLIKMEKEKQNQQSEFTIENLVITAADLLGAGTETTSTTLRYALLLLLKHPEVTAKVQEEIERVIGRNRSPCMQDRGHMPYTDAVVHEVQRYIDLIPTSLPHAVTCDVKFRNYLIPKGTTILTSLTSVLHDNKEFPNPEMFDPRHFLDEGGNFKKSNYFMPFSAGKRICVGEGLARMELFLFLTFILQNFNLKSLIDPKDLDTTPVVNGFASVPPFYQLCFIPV
Luciferin 4-monooxygenase, sequence (P08659 whole entry): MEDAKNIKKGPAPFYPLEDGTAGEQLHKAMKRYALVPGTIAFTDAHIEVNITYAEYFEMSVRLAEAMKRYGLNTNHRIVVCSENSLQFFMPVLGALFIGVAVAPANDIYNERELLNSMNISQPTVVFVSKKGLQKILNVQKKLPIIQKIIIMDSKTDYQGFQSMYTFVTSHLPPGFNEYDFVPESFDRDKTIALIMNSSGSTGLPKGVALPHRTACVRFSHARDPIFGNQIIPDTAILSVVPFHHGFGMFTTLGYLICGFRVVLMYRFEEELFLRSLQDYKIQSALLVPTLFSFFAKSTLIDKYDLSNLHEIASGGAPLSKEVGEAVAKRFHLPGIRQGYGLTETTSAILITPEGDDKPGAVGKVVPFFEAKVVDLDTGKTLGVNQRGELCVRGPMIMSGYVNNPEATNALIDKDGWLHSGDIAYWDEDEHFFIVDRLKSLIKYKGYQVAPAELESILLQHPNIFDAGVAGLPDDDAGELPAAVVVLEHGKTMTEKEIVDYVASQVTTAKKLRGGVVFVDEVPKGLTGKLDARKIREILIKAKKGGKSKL
Cytochrome P450 2C9, sequence (P11712 whole entry): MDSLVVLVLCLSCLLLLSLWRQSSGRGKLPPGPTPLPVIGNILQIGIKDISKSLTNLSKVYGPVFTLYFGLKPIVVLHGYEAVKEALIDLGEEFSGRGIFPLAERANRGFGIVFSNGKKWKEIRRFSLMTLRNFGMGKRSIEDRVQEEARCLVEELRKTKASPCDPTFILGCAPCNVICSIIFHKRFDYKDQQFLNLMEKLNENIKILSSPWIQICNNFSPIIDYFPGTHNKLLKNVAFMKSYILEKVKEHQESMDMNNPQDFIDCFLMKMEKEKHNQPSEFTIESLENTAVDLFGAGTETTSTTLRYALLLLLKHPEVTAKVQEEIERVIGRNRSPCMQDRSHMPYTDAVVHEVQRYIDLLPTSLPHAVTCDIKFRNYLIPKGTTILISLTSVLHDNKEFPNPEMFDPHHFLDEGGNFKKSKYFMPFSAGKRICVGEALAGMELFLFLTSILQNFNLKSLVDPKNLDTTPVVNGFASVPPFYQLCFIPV

CCN1CCN(Cc2ccc(NC(=O)c3ccc(C)c(NC(=O)c4ccno4)c3)cc2C(F)(F)F)CC1
AC50 (HEK293): 0.0518 µM (active)

COC(=O)C(C/C=C(\C)c1ccccc1)C(C)=O (centres undefined)
GI50 (P388/ADR): 29 µM (inactive) | GI50 (SN12K1): 45.2 µM (inactive) | GI50 (P388): 27.2 µM (inactive)

COC(=O)[C@]1(c2ccc(N(C)C)cc2OC)C[C@@H]2CCCN(CCc3c1[nH]c1ccccc31)C2
GI50 (P388/ADR): 18.1 µM (inactive) | GI50 (SN12K1): 17.4 µM (inactive) | GI50 (P388): 16.7 µM (inactive)

CCOC(=O)C1=C(C(C)=O)CSC(c2ccccc2)=N1
GI50 (P388/ADR): 68.5 µM (inactive) | GI50 (SN12K1): > 100 µM (inactive) | GI50 (P388): > 100 µM (inactive)

O=C(CN1C(=O)c2ccccc2S1(=O)=O)c1ccc(F)c(F)c1
AC50 [1]: 3.42 µM (active) | AC50 (HEK293): 6.76 µM (active) | AC50 [2]: 9.41 µM (active)

CCN(C[C@H]1N[C@@](C)(C(=O)OC)[C@H]2C(=O)N(Cc3ccccc3)C(=O)[C@@H]12)S(=O)(=O)c1ccc(C)cc1
AC50 [3]: 69.3 µM (active) | AC50 [4]: 5.73 µM (active) | AC50 [5]: 21.4 µM (active) | AC50 [6]: 15 µM (active)

CC(C)(C)n1nc(-c2ccc(Cl)cc2)c2c(N)ncnc21
EC50 [7]: 5.58 µM (active) | AC50 (Cytochrome P450 2C9): 7.08 µM (inconclusive) | EC50 [8]: 6.21 µM (active) | AC50 (HEK293): 12.2 µM (active) | EC50 [9]: 7.3 µM (active) | EC50 [10]: 12.4 µM (active) | EC50 [11]: 23.3 µM (active)

Cn1cc([N+](=O)[O-])c(C(=O)Nc2sc3c(c2C#N)CCC3)n1
AC50 [12]: 8.93 µM (active) | AC50 [13]: 0.88 µM (active)

COc1ccc(C(N)=S)c(OC)c1
IC50 [14]: > 66 µM (inactive) | AC50 [15]: 9.26 µM (active) | IC50 [16]: > 66 µM (inactive)

O=NN(CCF)C(=O)NC1CC2CCC1C2 (centres undefined)
GI50 (P388/ADR): 24.5 µM (inactive) | GI50 (SN12K1): > 100 µM (inactive) | GI50 (P388): 15.8 µM (inactive)

CC1(C)CC2(CCO1)OC(=O)CC2C(=O)NCCc1ccccc1 (centres undefined)
AC50 (Cytochrome P450 2C19): 25.1 µM (inconclusive) | AC50 (Cytochrome P450 2D6): 22.4 µM (inconclusive) | AC50 (Cytochrome P450 3A4): 28.2 µM (inconclusive)

O=C(c1ccc2ncsc2c1)N1CCN(c2nc3ccccc3s2)CC1
AC50 [3]: 8.65 µM (active) | AC50 [4]: 4.18 µM (active) | AC50 [5]: 3.19 µM (active) | AC50 [6]: 8.38 µM (active)

CCC/C=C(\CCC)C(NS(=O)(=O)c1ccc(C(F)(F)F)cc1)c1ccccc1 (centres undefined)
EC50 (Streptokinase A): 2.24 µM (active) | EC50 (Streptococcus): 22.5 µM (active) | AC50 (Cytochrome P450 2D6): 20 µM (inconclusive) | AC50 [17]: 3.36 µM (active) | EC50 [18]: 2.73 µM (active)
